Reference: patent US10590116B2, “3-indolyl furanoids as inhibitors of matrix metalloproteinase-9 for prevention of gastric ulcer and other inflammatory diseases” (Council of Scientific & Industrial Research, priority 2017, dated 2020)
Several values for one entry are separate records, joined by “and”; a condition that tells them apart may be missing. Identical values can stand only once. Entries after “also recorded” stand apart in the source; their conditions may differ.

Columns and labels:
[1] = test system: gastric epithelium and submucosa; experiment: Haematoxylin-eosin staining of gastric tissue sections; type: in vivo; conditions: 50 mg/kg body weight, indomethacin ulcerated mice
From the text: (§1) To understand the fine information about the physical condition (the level of damage and/or intactness) of cells tissues under observation, different tissue samples were fixed in 10% formalin and embedded in paraffin. Tissue sections were deparaffinized with xylene and rehydrated with descending alcohol series. The sections were cut using microtome, and stained with hematoxylin and eosin, or subjected to Terminal deoxynucleotidyl transferase-mediated dUTP Nick End Labeling (TUNEL) assay by using a in situ apoptosis detection kit. Fixation, permeabilization, and staining were carried out in exact parallel to ensure comparative significance among normal, ulcerated and compound 5 treated groups. […] Images at 10× and 40× magnification were captured using Camedia software (E-20P 5.0 Megapixel) and processed under Adobe Photoshop version 7.0 (FIG. 1B).
(§2) Tissue sections were stained with hematoxylin and eosin stain. Fixation, permeabilization, and staining were carried out in parallel in normal, ulcerated and compound 5 treated groups to ensure comparative significance among different treatment. TUNEL assay is used for detection and quantification of apoptosis in gastric tissues, based on labelling of DNA strand breaks. Terminal deoxynucleotidyl transferase-mediated dUTP Nick End Labeling (TUNEL) assay was performed by using an in situ apoptosis detection kit. […]

[2] = test system: apoptosis of gastric mucosa; experiment: TUNEL assay of gastric tissue sections; type: in vivo; conditions: indomethacin ulcerated mice
From the text: as §1, §2

[3] = test system: lipid peroxide content (TBARS); experiment: Measurement of lipid peroxidation (TBARS) in gastric tissue homogenate; type: in vivo; conditions: ulcerated mice
Experimental: The fundic stomach homogenate was used for measurement of lipid peroxide content as thiobarbituric acid reactive species (TBARS).
The cytosolic fraction from the gastric tissue homogenate was used for measurement of lipid peroxide content as thiobarbituric acid reactive species (TBARS). Briefly, 1 mL of the cytosolic fraction was allowed to react with 2 mL of TCA-TBA-HCl (15% TCA, 0.375% TBA, 0.25 N HCl) reagent, heated in a boiling water-bath for 15 min, cooled and centrifuged. The absorbance of the supernatant was measured for nano moles of TBARS at 535 nm (ε=1.5×10^5/M/cm).

MMP-9 = molecular target: T1, MMP-9 (Mus musculus, UniProt P41245); experiment: Gelatin zymography of gastric tissue extract, MMP-9; type: in vivo, mice; conditions: pretreatment before indomethacin
T1 construct: from tissue; host or cells: mouse stomach (gastric tissue) PBS / Triton X-100 extracts
Experimental: (§3) The whole stomach (including fundic, body and pyloric parts) was washed with saline and used for extraction. Stomach except connective tissue layer (named as gastric tissue) were suspended in 10 mM phosphate buffer saline (PBS) containing protease inhibitors, minced and incubated for 10 min at 4° C. After centrifugation at 12,000 g for 15 min, the supernatant was collected as PBS extracts. The pellet was then extracted in lysis buffer (10 mM Tris-HCl pH 8.0, 150 mM NaCl, 1% Triton X-100 and protease inhibitors) and centrifuged at 12,000 g for 15 min to obtain TX extracts. Both PBS and TX extracts were preserved at −70° C. and used in future studies. Proteins were estimated either by Lowry method or by Bradford assay.
(§4) For the analysis of MMP-9 activity, tissue extracts were electrophoresed in 8% SDS-PAGE containing 1 mg/mL gelatin under nonreducing conditions. Equal amounts of tissue extracts (70 μg of total protein) were loaded in all the lanes. […] Quantification of zymographic bands was performed using densitometry linked to proper software (Lab Image, Kapelan Gmbh, Leipzig, Germany). […]
(§5) Tissue extracts were electrophoresed in SDS-PAGE containing gelatin under nonreducing conditions. […] Gelatinolytic activity came as negative staining and was quantified by Lab Image software.

MMP-2 = molecular target: T2, MMP-2 (Mus musculus, UniProt P33434); experiment: Gelatin zymography of gastric tissue extract, MMP-2; type: in vivo, mice; conditions: pretreatment before indomethacin
T2 construct: Tissue extracts were electrophoresed in SDS-PAGE containing gelatin under nonreducing conditions; from tissue; host or cells: mouse stomach (gastric tissue) PBS / Triton X-100 extracts
Experimental: as §3, §4, §5

purified MMP-9 = molecular target: T3, purified MMP-9 (Homo sapiens, UniProt P14780); experiment: IC50 on purified MMP-9 using gelatin zymography; type: biochemical, human (IPF patients); conditions: purified MMP-9, gelatin zymography, three independent experiments
T3 construct: from tissue; host or cells: bronchoalveolar lavage fluid of IPF patients
Experimental: MMP-9 was purified from the bronchoalveolar lavage fluid (BALF) of idiopathic pulmonary fibrosis (IPF) patients as these fluids contain enormous amounts of MMP-9. All purification procedures were carried out at 4° C. Briefly, BALF containing protease inhibitor cocktail (EDTA Free) were centrifuged at 12,000 g for 15 min, and the supernatant was collected and processed for protein purification. […] The enzyme was eluted with 7% dimethyl sulfoxide diluted in the same buffer, and the fractions containing enzyme protein as determined by absorbance at 280 nm were pooled and immediately dialyzed against equilibrating buffer at 4° C. They were then concentrated using Amicon Ultra-15 centrifugal filter devices and protein concentration was determined by Bradford assay. These samples were screened to confirm the presence of MMP-9 and absence of MMP-2 by gelatin zymography and stored at −70° C.
The inventors address the IC50 value of compound 5 towards MMP-9 binding. To evaluate the IC50 value of compound 5 on MMP-9 activity, equal amount of purified MMP-9 was incubated with various concentrations of compound 5 followed by electrophoresis in 8% SDS-PAGE containing 1 mg/mL gelatin under nonreducing conditions.

T1 sequence (P41245 108-730): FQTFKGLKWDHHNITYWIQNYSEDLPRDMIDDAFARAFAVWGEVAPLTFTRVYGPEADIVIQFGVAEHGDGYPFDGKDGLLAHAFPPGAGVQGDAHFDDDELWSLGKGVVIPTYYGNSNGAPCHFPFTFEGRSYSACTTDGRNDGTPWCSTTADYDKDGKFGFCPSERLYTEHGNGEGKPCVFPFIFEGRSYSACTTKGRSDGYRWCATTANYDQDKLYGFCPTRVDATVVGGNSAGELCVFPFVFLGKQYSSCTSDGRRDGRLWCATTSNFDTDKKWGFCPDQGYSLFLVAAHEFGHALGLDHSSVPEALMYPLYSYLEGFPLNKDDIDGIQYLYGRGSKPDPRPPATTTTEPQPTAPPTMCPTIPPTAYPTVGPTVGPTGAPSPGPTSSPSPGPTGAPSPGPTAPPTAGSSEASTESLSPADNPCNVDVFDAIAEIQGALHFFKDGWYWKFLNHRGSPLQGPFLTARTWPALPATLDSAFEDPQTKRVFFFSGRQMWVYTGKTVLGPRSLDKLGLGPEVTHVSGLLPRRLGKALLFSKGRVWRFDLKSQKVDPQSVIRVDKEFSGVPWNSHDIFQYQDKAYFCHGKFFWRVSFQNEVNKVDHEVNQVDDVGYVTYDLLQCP
T3 sequence (P14780 94-707): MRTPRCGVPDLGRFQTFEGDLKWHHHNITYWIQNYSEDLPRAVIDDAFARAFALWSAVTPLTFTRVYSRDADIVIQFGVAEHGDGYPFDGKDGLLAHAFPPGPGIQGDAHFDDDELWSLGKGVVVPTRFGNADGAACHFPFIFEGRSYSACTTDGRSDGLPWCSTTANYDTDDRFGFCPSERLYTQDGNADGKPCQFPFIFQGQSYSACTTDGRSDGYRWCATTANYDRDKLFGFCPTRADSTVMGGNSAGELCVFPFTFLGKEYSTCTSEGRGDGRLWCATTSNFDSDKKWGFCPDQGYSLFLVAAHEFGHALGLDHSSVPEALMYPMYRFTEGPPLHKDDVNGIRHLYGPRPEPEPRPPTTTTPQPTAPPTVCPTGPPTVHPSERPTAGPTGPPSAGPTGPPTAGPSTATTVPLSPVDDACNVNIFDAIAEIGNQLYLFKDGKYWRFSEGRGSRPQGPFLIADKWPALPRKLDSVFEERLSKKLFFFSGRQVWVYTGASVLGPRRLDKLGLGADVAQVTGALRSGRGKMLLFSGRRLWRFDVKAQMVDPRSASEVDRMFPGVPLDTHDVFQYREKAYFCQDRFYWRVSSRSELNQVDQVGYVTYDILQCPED
T2 sequence (P33434 110-662): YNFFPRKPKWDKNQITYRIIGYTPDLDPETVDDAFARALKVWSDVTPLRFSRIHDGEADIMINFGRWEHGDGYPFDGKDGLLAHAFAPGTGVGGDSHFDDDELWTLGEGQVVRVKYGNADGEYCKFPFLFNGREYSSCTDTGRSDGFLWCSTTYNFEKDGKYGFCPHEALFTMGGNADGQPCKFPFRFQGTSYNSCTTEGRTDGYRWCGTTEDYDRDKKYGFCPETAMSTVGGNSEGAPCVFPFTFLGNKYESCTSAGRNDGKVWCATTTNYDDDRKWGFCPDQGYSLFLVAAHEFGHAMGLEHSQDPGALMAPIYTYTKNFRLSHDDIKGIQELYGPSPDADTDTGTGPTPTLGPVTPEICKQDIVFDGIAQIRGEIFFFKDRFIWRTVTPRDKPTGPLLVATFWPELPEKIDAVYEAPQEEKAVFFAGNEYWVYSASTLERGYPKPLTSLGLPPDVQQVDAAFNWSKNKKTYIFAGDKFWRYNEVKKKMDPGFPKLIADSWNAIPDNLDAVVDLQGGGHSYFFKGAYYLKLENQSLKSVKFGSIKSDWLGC

In the case of `COc1cccc2[nH]cc(-c3cc(-c4ccccc4)oc3-c3ccccc3)c12` [compound 5, 4-methoxy-3-(2,5-diphenylfuran-3-yl)-1H-indole], the “gastric injury, haematoxylin-eosin staining” value [1] is reported as “minimum injury and intact epithelial layer; also recorded: prevents indomethacin induced gastric injury”, the “apoptosis of gastric mucosa (TUNEL)” value [2] is reported as “suppression of apoptosis” and the Lipid peroxidation [3] is reported as 0.47±0.15 nmol TBARS/mg tissue. The Lipid peroxidation ([3]; listed as Compound 5) was 0.47 ± 0.15 nmol TBARS/mg tissue, the “MMP-9 activity in gastric tissue extract” value (MMP-9) was “inhibits MMP-9 activity in gastric mucosa” and the “MMP-9 activity in gastric tissue extract” value (MMP-9; listed as Compound 5) was “inhibited MMP-9 activity very significantly”. For the same compound, the “MMP-2 activity in gastric tissue extract” value (MMP-2) was “remained unaltered” and the IC50 (purified MMP-9) was ~50 µM and 50 µM.
